Entries after “also recorded” stand apart in the source; their conditions may differ.
Tests used:
[1] = tested on: macrophage-like J774A.1 cells; assay: IFNγ/TNFα-induced NO production (Griess) in J774A.1 cells; assay type: cell-based, murine; conditions: pretreatment then IFNγ and TNFα, hydrochloride
Method: (§1) Evaluation of NO and Urea production by chemical methods. The MB49-I cells and the J774A.1 cells (25×10^3 cells/well) were grown and pretreated, as indicated, with various anti-inflammatory derivatives, precursors and mono-functional derivatives for a period of 3 h. Afterwards the cells were washed twice with 10% FBS RPMI-1640 and then activated to produce NO for a period of 24 h with cytokines INFγ and TNFα. NO production was measured using the Griess reagent method as previously described.^27 This method involves the detection of nitrite ions (NO2^−) formed by the spontaneous oxidation of NO under physiological conditions. According the manufacture procedure (Life Technologies; # G-7921), equal volumes of sulfanilic acid and N-(1-naphthyl)ethylenediamine are mixed together to form the Griess reagent. In the presence of NO2^−, sulfanilic acid is converted to a diazonium salt, which in turn is coupled to N-(1-naphthyl)ethylenediamine to produce a pink coloration that is measured with a spectrophotometer (Biotek, synergy HT) at 548 nm. In the same manner, urea synthesis through arginase-1 activity was measured using commercially available kit.

[2] = tested on: CD40; assay: Flow cytometry of CD40 surface antigen in IFNγ-activated human macrophages; assay type: cell-based; conditions: compound 4 at 10 μM, compound 5 at 25 μM, hydrochloride
Method: (§2) Surface antigen expression analysis. To study membrane receptor expression, THP1-derived human macrophages (750×10^4 cells/mL) were pretreated for 3 h with DMSO or compounds 4 and 5, and then left untreated (control) or treated for 48 h with 50 U/mL IFNγ. The expression level of MHC-II and CD40 was evaluated by flow cytometry as described.^21-23

[3] = tested on: MHC-II; assay: Flow cytometry of MHC-II surface antigen in IFNγ-activated human macrophages; assay type: cell-based; conditions: compound 4 at 10 μM, compound 5 at 25 μM, hydrochloride
Method: as §2

[4] = tested on: STAT1; assay: Western blot of phosphorylated STAT1 in IFNγ-activated human macrophages; assay type: cell-based; conditions: human macrophages pretreated 30 min at 10 and 50 μM; 30 min activation with 50 U/mL IFNγ; hydrochloride
Method: (§3) Cell signaling studies: THP1-derived human macrophages (750×10^3 cells/mL) and MB49-I cells (500×10^3 cells/mL) were pretreated for 30 min with vehicle (DMSO), compounds 4 and 5, at 10, 25 or 50 μM; and then washed and recovered immediately (t=0 min) or after 30 min of activation with 50 U/mL IFNγ, 25 ng/mL IL6, or 10 ng/mL TNFα. Cell lysates were prepared and analyzed by immunoblotting as described.^21-23,25 Briefly, protein samples were resolved by SDS-PAGE under reducing conditions and transferred onto a PVDF membrane. Blots were first probed with rabbit polyclonal antibodies against phospho-STAT1 (pSTAT1), pSTAT3, or p-IκB (all at 1:2000) overnight at 4° C. Blots were then incubated with HRP-conjugated goat anti-rabbit IgG Ab (1:3000) for 1 h at room temperature. The same blots were stripped and then probed with anti-STAT1 or anti-STAT3 Abs (both at 1:1000). In both cases, probed molecules were visualized using an enhancement chemiluminescence detection kit (Thermo Fisher Scientific).

[5] = tested on: STAT3; assay: Western blot of phosphorylated STAT3 in IL6-activated human macrophages; assay type: cell-based; conditions: human macrophages pretreated 30 min at 10 and 50 μM; 30 min activation with 25 ng/mL IL6; hydrochloride
Method: as §3

[6] = tested on: UBC cell line MB49-I; assay: IFNγ/TNFα-induced NO production (Griess) in MB49-I cells; assay type: cell-based, murine; conditions: 10 and 50 μM
Method: as §1

[7] = tested on: murine macrophages RAW 264.7 cells; conditions: 90 min pretreatment, counted after 24 h
[8] = tested on: human macrophages THP-1 cells; conditions: 90 min pretreatment, counted after 24 h
[9] = tested on: IκB / NFκB signaling pathway; assay: Western blot of phosphorylated IκB in LPS-activated RAW 264.7 cells; assay type: cell-based, murine; conditions: 90 min pretreatment at 20 and 37.5 μM, 100 ng/mL LPS 15 min
[10] = tested on: MB49-I tumors; assay: Ectopic UBC model, MB49-I tumors implanted in the flank of male mice; assay type: in vivo; conditions: i.p. 150 μM during 18 days, tumors recovered day 20
Method: Ectopic UBC model. Male C57BL/6J mice (6-8 weeks old), each weighing 15-18 g, were used for the experiments (supplied by Charles River). The mice were housed with free access to food and water on a 12:12 h light:dark cycle with the room temperature maintained at 21° C. MB49 cells, MB49-I cells, and iNOS-deficient MB49-I cells ([…] in 100 μL PBS) were injected subcutaneously (s.c.) into the right flank of the mice. Growth rates of the s.c. tumors were monitored. The size of tumors was determined every 3 days for 24-28 days using a digital caliper and by measuring luciferin luminescence at days 15 and 25 using the IVIS imaging system. A blinded observer measured tumor length and width. The volume of the tumor was calculated from the formula: Length×width2×0.52, where length and width were tumor diameters measured with calipers in mutually perpendicular directions. At a tumor size of approximately 10 mm^3 the mice were divided into different groups. A control group received PBS as treatment. As indicated, other groups were treated at different doses (90, 150 or 300 μM) with an intraperitoneal (i.p.) injection of compounds 4 or 8 every 3-4 days for 18-20 days.^24,27

[11] = tested on: STAT1; assay: Western blot of phosphorylated STAT1 in IFNγ-activated RAW 264.7 cells; assay type: cell-based, murine; conditions: 90 min pretreatment at 20 and 37.5 μM, 5 ng/mL IFNγ 15 min
Method: as §3

[12] = tested on: murine UBC MB49-I cells; conditions: 90 min pretreatment, counted after 24 h
[13] = tested on: MB49-I cells; assay: LPS/IFNγ-induced NO production in MB49-I cells; assay type: cell-based, murine
Method: as §1, with “Afterwards the cells were washed twice with 10% FBS RPMI-1640 and then activated to produce NO for a period of 24 h with cytokines INFγ and TNFα.” left out

SMILES: Cl.NNC(=O)c1ccc(N2C(=O)C=CC2=O)cc1 [Compound 5, 4-(2,5-dioxo-2,5-dihydro-pyrrol-1-yl)-benzoic acid hydrazide hydrochloride]
- combined IFNγ/TNFα-induced NO synthesis [1]: effective in reducing; also recorded: efficiently inhibited
- IFNγ-induced CD40 expression [2]: effective in reducing; also recorded: efficiently inhibited
- IFNγ-induced MHC-II expression [3]: effective in reducing; also recorded: efficiently inhibited
- IFNγ-induced STAT1 activation (ratio of phosphorylated/no phosphorylated proteins) [4]: decreased; also recorded: efficiently inhibited
- IL6-induced STAT3 activation (ratio of phosphorylated/no phosphorylated proteins) [5]: decreased; also recorded: efficiently inhibited
- combined IFNγ/TNFα-induced NO synthesis [6]: efficiently inhibited

SMILES: CC(=O)N(NC(=O)c1ccc(N2C(=O)C=CC2=O)cc1)C(C)=O [Compound 8, 4-(2,5-dioxo-2,5-dihydro-pyrrol-1-yl)-benzoic acid N′-diacetyl-hydrazide]
- cytotoxic effect (cell viability) [7]: lower than that of compound 4
- cytotoxic effect (cell viability) [8]: lower than that of compound 4
- LPS-activated NFκB signaling pathway (ratio p-IkB/IkB) [9]: efficient to inhibit
- tumor volume of muscle-invasive MB49-I tumors [10]: anti-proliferative activity; also recorded: more efficient than compound 4
- IFNγ-activated STAT1 signaling pathway (ratio p-STAT1/STAT1) [11]: more efficient than other compounds
- cytotoxic effect (cell viability) [12]: lower than that of compound 4
- IFNγ/LPS-induced NO production ([13]; 20 and 37.5 μM): more efficient than compound 4

SMILES: CC(=O)N(NC(=O)OC(C)(C)C)C(=O)c1ccc(N2C(=O)C=CC2=O)cc1 [Compound 10, N-acetyl-N-[4-(2,5-dioxo-2,5-dihydro-pyrrol-1-yl)-benzoyl]-hydrazinecarboxylic acid tert-butyl ester]
- LPS-activated NFκB signaling pathway (ratio p-IkB/IkB) [9]: efficient to inhibit

SMILES: CC(=O)N(C(=O)OC(C)(C)C)N(C(C)=O)C(=O)c1ccc(N2C(=O)C=CC2=O)cc1 [Compound 11, N,N′-diacetyl-N′-[4-(2,5-dioxo-2,5-dihydro-pyrrol-1-yl)-benzoyl]-hydrazinecarboxylic acid tert-butyl ester]
- LPS-activated NFκB signaling pathway (ratio p-IkB/IkB) [9]: efficient to inhibit

SMILES: CC(C)(C)OC(=O)NNC(=O)c1ccc(N2C(=O)CCC2=O)cc1 [Compound 12, N′-[4-(2,5-dioxo-pyrrolidin-1-yl)-benzoyl]-hydrazine carboxylic acid tert-butyl ester]
- LPS/IFNγ-induced NO synthesis ([13]; compound 4 at 30 μM, compound 12 at 10, 20, 37.5 and 50 μM): lost its anti-inflammatory activity; also recorded: does not affect

Source: patent US10759754B2, “Aminobenzoic acid derivatives for use as anti-inflammatory agents, anti-metastatic agents and/or anticancer agents” (3R VALO, S.E.C., priority 2016, dated 2020)
